In patent US20260284208A1, “SYSTEM” (Oxford University Innovation Limited, priority 2023, published 2026):

Tested on: library of 8,380 IKZF3 degrons (ZF-eGFP/mCherry reporter) in Jurkat cells
Experiment: Pooled library screen (FACS, NGS, limma voom LogFC of positive vs negative read counts)
Format: cell-based, human
How it was run: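 Cells were lentivirally transduced at MOI <0.3, and mCherry+ cells were sorted 6 days later. Eight days after sorting, cells were treated with DMSO or thalidomide analog for 18 h at 37 °C. mCherry+GFPlow (DMSO-set gate, DAPI-excluded) and remaining cells were sorted, and degrons were PCR-amplified from gDNA and sequenced (>600× coverage, 3 biological replicates).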

`O=C1CCC(N2C(=O)c3ccc(N4CCOCC4)cc3C2=O)C(=O)N1` (centres unmarked) [B03] showed a B03_logFC (Degron-ID 115, SEQ ID NO 3968, 46F_47A_49E_50V_52G_53A_54S_55F_67L) of 2.732, a B03_logFC (Degron-ID 120, SEQ ID NO 4031, 46F_47A_49N_50I_52G_53A_54A_55F_67L) of 2.638 and a B03_logFC (Degron-ID 315, SEQ ID NO 3989, 46F_47C_49E_50I_52G_53A_54S_55F_67L) of 2.703. For the same compound, the B03_logFC (Degron-ID 372, SEQ ID NO 3966, 46F_47C_49N_50I_52G_53A_54P_55F_67L) was 2.733, the B03_logFC (Degron-ID 433, SEQ ID NO 4021, 46F_47C_49P_50I_52G_53A_54Q_55F_67L) was 2.656 and the B03_logFC (Degron-ID 434, SEQ ID NO 3957, 46F_47C_49P_50I_52G_53A_54R_55F_67L) was 2.746. The B03_logFC (Degron-ID 435, SEQ ID NO 3984, 46F_47C_49P_50I_52G_53A_54S_55F_67L) was 2.71, the B03_logFC (Degron-ID 977, SEQ ID NO 4017, 46F_47F_49D_50I_52G_53A_54V_55F_67L) was 2.662 and the B03_logFC (Degron-ID 1011, SEQ ID NO 3988, 46F_47F_49D_50V_52G_53A_54N_55F_67L) was 2.704. The B03_logFC (Degron-ID 1015, SEQ ID NO 3971, 46F_47F_49D_50V_52G_53A_54S_55F_67L) was 2.728, the B03_logFC (Degron-ID 1065, SEQ ID NO 3981, 46F_47F_49E_50V_52G_53A_54G_55F_67L) was 2.716 and the B03_logFC (Degron-ID 1080, SEQ ID NO 4003, 46F_47F_49N_50I_52G_53A_54A_55F_67L) was 2.68. For the same compound, the B03_logFC (Degron-ID 1081, SEQ ID NO 4001, 46F_47F_49N_50I_52G_53A_54C_55F_67L) was 2.686, the B03_logFC (Degron-ID 1097, SEQ ID NO 3956, 46F_47F_49N_50I_52G_53A_54V_55F_67L) was 2.747 and the B03_logFC (Degron-ID 1183, SEQ ID NO 4013, 46F_47F_49P_50V_52G_53A_54E_55F_67L) was 2.668. It also gave a B03_logFC (Degron-ID 1188, SEQ ID NO 4025, 46F_47F_49P_50V_52G_53A_54K_55F_67L) of 2.644, a B03_logFC (Degron-ID 1197, SEQ ID NO 3982, 46F_47F_49P_50V_52G_53A_54V_55F_67L) of 2.716 and a B03_logFC (Degron-ID 1267, SEQ ID NO 3977, 46F_47G_49E_50I_52G_53A_54I_55F_67L) of 2.719. For the same compound, the B03_logFC (Degron-ID 1273, SEQ ID NO 4024, 46F_47G_49E_50I_52G_53A_54Q_55F_67L) was 2.644, the B03_logFC (Degron-ID 1314, SEQ ID NO 3964, 46F_47G_49E_50V_52G_53A_54R_55F_67L) was 2.737 and the B03_logFC (Degron-ID 1393, SEQ ID NO 4023, 46F_47G_49P_50I_52G_53A_54Q_55F_67L) was 2.648. For the same compound, the B03_logFC (Degron-ID 1433, SEQ ID NO 4022, 46F_47G_49P_50V_52G_53A_54Q_55F_67L) was 2.653, the B03_logFC (Degron-ID 1513, SEQ ID NO 4030, 46F_47H_49E_50I_52G_53A_54Q_55F_67L) was 2.639 and the B03_logFC (Degron-ID 1515, SEQ ID NO 4006, 46F_47H_49E_50I_52G_53A_54S_55F_67L) was 2.675. The B03_logFC (Degron-ID 1555, SEQ ID NO 4029, 46F_47H_49E_50V_52G_53A_54S_55F_67L) was 2.639, the B03_logFC (Degron-ID 1621, SEQ ID NO 4027, 46F_47H_49P_50I_52G_53A_54C_55F_67L) was 2.643 and the B03_logFC (Degron-ID 1751, SEQ ID NO 3952, 46F_47I_49E_50I_52G_53A_54N_55F_67L) was 2.753. For the same compound, the B03_logFC (Degron-ID 1754, SEQ ID NO 4020, 46F_47I_49E_50I_52G_53A_54R_55F_67L) was 2.656, the B03_logFC (Degron-ID 1755, SEQ ID NO 3970, 46F_47I_49E_50I_52G_53A_54S_55F_67L) was 2.728 and the B03_logFC (Degron-ID 1785, SEQ ID NO 4016, 46F_47I_49E_50V_52G_53A_54G_55F_67L) was 2.664. For the same compound, the B03_logFC (Degron-ID 1865, SEQ ID NO 4014, 46F_47I_49P_50I_52G_53A_54G_55F_67L) was 2.667, the B03_logFC (Degron-ID 1871, SEQ ID NO 3960, 46F_47I_49P_50I_52G_53A_54N_55F_67L) was 2.742 and the B03_logFC (Degron-ID 1913, SEQ ID NO 3962, 46F_47I_49P_50V_52G_53A_54Q_55F_67L) was 2.739. The B03_logFC (Degron-ID 1915, SEQ ID NO 3965, 46F_47I_49P_50V_52G_53A_54S_55F_67L) was 2.736, the B03_logFC (Degron-ID 2392, SEQ ID NO 4011, 46F_47L_49P_50V_52G_53A_54P_55F_67L) was 2.671 and the B03_logFC (Degron-ID 2957, SEQ ID NO 3986, 46F_47Q_49E_50I_52G_53A_54V_55F_67L) was 2.708. The B03_logFC (Degron-ID 2981, SEQ ID NO 4000, 46F_47Q_49E_50V_52G_53A_54C_55F_67L) was 2.687, the B03_logFC (Degron-ID 2996, SEQ ID NO 4026, 46F_47Q_49E_50V_52G_53A_54T_55F_67L) was 2.643 and the B03_logFC (Degron-ID 2997, SEQ ID NO 3951, 46F_47Q_49E_50V_52G_53A_54V_55F_67L) was 2.756. For the same compound, the B03_logFC (Degron-ID 3073, SEQ ID NO 3979, 46F_47Q_49P_50I_52G_53A_54Q_55F_67L) was 2.718, the B03_logFC (Degron-ID 3076, SEQ ID NO 3959, 46F_47Q_49P_50I_52G_53A_54T_55F_67L) was 2.742 and the B03_logFC (Degron-ID 3115, SEQ ID NO 3978, 46F_47Q_49P_50V_52G_53A_54S_55F_67L) was 2.718. It also gave a B03_logFC (Degron-ID 3432, SEQ ID NO 3998, 46F_47S_49E_50I_52G_53A_54P_55F_67L) of 2.688, a B03_logFC (Degron-ID 3540, SEQ ID NO 3999, 46F_47S_49P_50I_52G_53A_54A_55F_67L) of 2.688 and a B03_logFC (Degron-ID 3791, SEQ ID NO 4035, 46F_47T_49P_50I_52G_53A_54N_55F_67L) of 2.632. For the same compound, the B03_logFC (Degron-ID 3833, SEQ ID NO 4034, 46F_47T_49P_50V_52G_53A_54Q_55F_67L) was 2.635, the B03_logFC (Degron-ID 3835, SEQ ID NO 3974, 46F_47T_49P_50V_52G_53A_54S_55F_67L) was 2.722 and the B03_logFC (Degron-ID 3953, SEQ ID NO 3961, 46F_47V_49E_50V_52G_53A_54Q_55F_67L) was 2.742. It also gave a B03_logFC (Degron-ID 4065, SEQ ID NO 4015, 46F_47V_49P_50V_52G_53A_54G_55F_67L) of 2.665 and a B03_logFC (Degron-ID 4087, SEQ ID NO 3963, 46F_47W_49D_50I_52G_53A_54I_55F_67L) of 2.738.
